Test results reported in ChEMBL document CHEMBL2040802, “Synthesis and pharmacological activity of N-(2,2-dimethyl-3,4-dihydro-2H-1-benzopyran-4-yl)-4H-1,2,4-benzothiadiazine-3-carboxamides 1,1-dioxides on rat uterus, rat aorta and rat pancreatic β-cells” (Eur J Med Chem, 2012).

Experiments:
[1] = Myorelaxant effect in oxytoxin-induced Wistar rat uterus smooth muscle assessed as residual contractile activity by continuous superfusion of oxytocin at 50 uM; format: functional
[2] = Myorelaxant effect in oxytoxin-induced Wistar rat uterus smooth muscle assessed as residual contractile activity by continuous superfusion of oxytocin at 10 uM; format: functional
[3] = Myorelaxant effect in oxytoxin-induced Wistar rat uterus smooth muscle assessed as residual contractile activity by continuous superfusion of oxytocin at 100 uM; format: functional
[4] = tested on: Aorta; assay: Myorelaxant activity in Wistar rat aorta rings assessed as inhibition of KCl-induced contraction; format: functional, tissue-based
[5] = Inhibition of glucose-induced insulin secretion from Wistar rat pancreatic islet assessed as residual insulin release at 50 uM after 90 mins by radiometric analysis; format: functional

| Compound | Activity [1] [%] | Activity [2] [%] | Activity [3] [%] | EC50 [4] [µM] | Activity [5] [%] |
| --- | --- | --- | --- | --- | --- |
| Cc1ccc2c(c1)S(=O)(=O)N=C(C(=O)NC1CC(C)(C)Oc3ccc([N+](=O)[O-])cc31)N2 (centres undefined) | 94.9 | 103.9 | 90.6 | > 30 | 75.7 |
| CC1(C)CC(NC(=O)C2=NS(=O)(=O)c3cc(Cl)ccc3N2)c2cc([N+](=O)[O-])ccc2O1 (centres undefined) | 70.9 | 97.9 | 34.7 | > 30 | 77 |
| Cc1ccc2c(c1)S(=O)(=O)N=C(C(=O)NC1CC(C)(C)Oc3ccc(Br)cc31)N2 (centres undefined) | 44.5 | 76.8 | 6.6 | > 30 | 91.4 |
| CC1(C)CC(NC(=O)C2=NS(=O)(=O)c3ccccc3N2)c2cc([N+](=O)[O-])ccc2O1 (centres undefined) | 62.4 | 96.8 | 34.7 | > 30 | 77.9 |
| CC1(C)Oc2ccc(C#N)cc2[C@@H](N2CCCC2=O)[C@@H]1O (relative stereo) [LEVCROMAKALIM] | – | – | – | – | 77.2 |
| CC1(C)CC(NC(=O)C2=NS(=O)(=O)c3ccccc3N2)c2cc(F)ccc2O1 (centres undefined) | 97.9 | 123.7 | 76.8 | > 30 | 77.3 |
| CC(N/C(=N\C#N)Nc1ccncc1)C(C)(C)C (centres undefined) [PINACIDIL ANHYDROUS] | 35.5 | 58.1 | 38.1 | – | 92.1 |
| Cc1ccc2c(c1)S(=O)(=O)N=C(C(=O)NC1CC(C)(C)Oc3ccc(F)cc31)N2 (centres undefined) | 132.4 | 116.6 | 124.4 | > 30 | 96.9 |
| CC1(C)CC(NC(=O)C2=NS(=O)(=O)c3ccccc3N2)c2cc(Br)ccc2O1 (centres undefined) | 44.3 | 60.1 | 19.9 | > 30 | 86.7 |
| CC1=Nc2ccc(Cl)cc2S(=O)(=O)N1 [DIAZOXIDE] | 76.3 | 93.8 | 67.7 | – | 28.8 |
